Reference: PMC12104055 (Frontiers in Pharmacology, 2025)
Read-outs that look alike come from different tables or passages of the source.

Columns and labels:
[1] = Drug interaction study: pharmacokinetics of firmonertinib and AST-5902 in rats with or without nirmatrelvir and ritonavir (paxlovid); type: in vivo, Sprague-Dawley (SD) rats; conditions: for AUC(0-inf) / AUC(0-t) / Cmax / Tmax / half-life / CL/F / MRT last / MRT inf / Vd/F: male, Sprague-Dawley, rat, plasma, po, 7.2 mg/kg, rat plasma; for CL/F: read-out: CLz/F (converted); for MRT last: read-out: MRT(0-t); for MRT inf: read-out: MRT(0-∞); for Vd/F: read-out: Vz/F; for Difference in main pharmacokinetic data between single-dose and long-term nirmatrelvir and ritonavir groups: P > 0.05
Method: The experimental animals for pharmacokinetics were eighteen male Sprague-Dawley (SD) rats (6–8 weeks old), weighing 180–220 g, purchased from Beijing Vital River Laboratory Animal Technology Co., Ltd. All animal-related experimental operations and care were performed in accordance with the Guide for the Care and Use of Laboratory Animals and were approved by the Animal Research Ethics Committee of Wenzhou Medical University (wydw2022-0184). All SD rats were kept in an SPF animal laboratory and were provided with adequate feed and water until all rats reached the required body weight for the experiment. […] Eighteen SD rats were randomly and equally divided into three groups of six rats each. Group C rats (long-term administration group) were given 55 mg/kg nirmatrelvir and 20 mg/kg ritonavir by gavage every 12 h for 5 days. Groups B (single dose administration group) and A (control group) were also given the same amount of 0.5% CMC-Na every 12 h for 5 days. Prior to the pharmacokinetic experiments, all rats were fasted for 12 h, but drinking water was not prohibited. On the day of the experiment, 55 mg/kg nirmatrelvir and 20 mg/kg ritonavir were given once by gavage to rats in group B and group C. The same dose of 0.5% CMC-Na was given to group A rats. […] Blood was collected using heparin lithium-anticoagulant tubes and then centrifuged for 10 min at 13,000 rpm at 4°C. Subsequently, the upper plasma fraction was transferred to a clean centrifuge tube and placed in a −80°C refrigerator for storage until detection.
The pharmacokinetic parameters of three groups were analyzed by single factor analysis of variance using SPSS 28.0 software. A p value of less than 0.05 were considered significant difference between the two groups.

[2] = Stability in rat plasma under different storage conditions; type: in vitro ADME; conditions: for Stability RE (%), 4°C / Stability RE (%), Room temperature / Stability RE (%), Three freeze-thaw / Stability RE (%), −80°C: rat plasma; for Stability RE (%), 4°C: 4°C (24 h); for Stability RE (%), Room temperature: room temperature (4 h); for Stability RE (%), −80°C: −80°C long-term storage; for Stability in rat plasma: short-term and long-term storage conditions
Method: The stability of the method was assessed through the determination of low, medium and high concentration rat plasma quality control samples under various storage conditions. […] The stability of the samples was determined by the precision of measurement results, and the samples were considered stable when the CV% and RE% were both below 15%.

[3] = parameters: method as in Heng et al., 2021; conditions: itraconazole (CYP3A4 inhibitor); clinical study; ref Heng et al., 2021; cited from earlier work
[4] = parameters: method as in Zhu et al., 2021; conditions: therapeutic doses of rifampicin (strong CYP3A4 inducer); clinical study; ref Zhu et al., 2021; cited from earlier work
CYP3A4 = system: CYP3A4; parameters: method as in Liu et al., 2020; conditions: ref Liu et al., 2020, cited from earlier work
[5] = Group A control: single 7.2 mg/kg firmonertinib by gavage alone
[6] = Group B: single dose 55 mg/kg nirmatrelvir and 20 mg/kg ritonavir, then 7.2 mg/kg firmonertinib by gavage
[7] = Group C: 5 days twice a day 55 mg/kg nirmatrelvir and 20 mg/kg ritonavir, then 7.2 mg/kg firmonertinib by gavage
[8] = rats, long-term nirmatrelvir and ritonavir vs firmonertinib monotherapy group
[9] = rats, single dose nirmatrelvir and ritonavir vs firmonertinib monotherapy group
[10] = rats, long-term (5 days) nirmatrelvir and ritonavir vs firmonertinib monotherapy group

C=CC(=O)Nc1cc(Nc2nccc(-c3cn(C)c4ccccc34)n2)c(OCC(F)(F)F)nc1N(C)CCNC [AST-5902]
AUC(0-inf) [1, 5]: 405 ± 60.4 ng·h/mL | AUC(0-t) [1, 5]: 387 ± 58.2 ng·h/mL | Cmax [1, 5]: 39 ± 2.46 ng/mL | Tmax [1, 5]: 5.33 ± 1.03 h | half-life [1, 5]: 4.94 ± 0.98 h | CL/F [1, 5]: 302 mL/min/kg | MRT last [1, 5]: 8.37 ± 0.39 h | MRT inf [1, 5]: 9.35 ± 0.4 h | Vd/F [1, 5]: 129 ± 35.5 L/kg | AUC(0-inf) [1, 6]: 185 ± 147 ng·h/mL | AUC(0-t) [1, 6]: 122 ± 15 ng·h/mL | Cmax [1, 6]: 9.79 ± 1.7 ng/mL | Tmax [1, 6]: 8.33 ± 2.94 h | half-life [1, 6]: 6.14 ± 4.31 h | CL/F [1, 6]: 851 mL/min/kg | MRT last [1, 6]: 8.94 ± 0.62 h | MRT inf [1, 6]: 8.73 ± 2.41 h | Vd/F [1, 6]: 362 ± 62.9 L/kg | AUC(0-inf) [1, 7]: 125 ± 13.2 ng·h/mL | AUC(0-t) [1, 7]: 122 ± 12.8 ng·h/mL | Cmax [1, 7]: 10.2 ± 1.42 ng/mL | Tmax [1, 7]: 8.67 ± 1.63 h | half-life [1, 7]: 3.65 ± 0.58 h | CL/F [1, 7]: 969 mL/min/kg | MRT last [1, 7]: 9.22 ± 0.19 h | MRT inf [1, 7]: 9.7 ± 0.33 h | Vd/F [1, 7]: 306 ± 56.7 L/kg | Difference in main pharmacokinetic data between single-dose and long-term nirmatrelvir and ritonavir groups ([1]; rats): no significant differences | AUC(0-∞) of AST-5902 decreased by [1, 8]: 70% | CLz/F of AST-5902 increased by [1, 8]: 3.2 times | Cmax of AST-5902 decreased by [1, 8]: 74% | Tmax of AST-5902 increased by [1, 8]: 1.62 times | Vz/F of AST-5902 increased by [1, 8]: 2.36 times | AUC(0-∞) of AST-5902 decreased by [1, 9]: 55% | CLz/F of AST-5902 increased by [1, 9]: 2.81 times | Cmax of AST-5902 decreased by [1, 9]: 75% | Tmax of AST-5902 increased by [1, 9]: 1.56 times | Vz/F of AST-5902 increased by [1, 9]: 2.79 times | AUC(0-t) of AST-5902 decreased by ([1]; rats, single-dose and long-term nirmatrelvir and ritonavir groups vs firmonertinib monotherapy group): 69% | Stability RE (%), 4°C ([2]; AST-5902 table, 0.2 ng/mL): −1.94% | Stability RE (%), Room temperature ([2]; AST-5902 table, 0.2 ng/mL): 4.37% | Stability RE (%), Three freeze-thaw ([2]; AST-5902 table, 0.2 ng/mL): 1.93% | Stability RE (%), −80°C ([2]; AST-5902 table, 0.2 ng/mL): 0.97% | Stability RE (%), 4°C ([2]; AST-5902 table, 5 ng/mL): −1.36% | Stability RE (%), Room temperature ([2]; AST-5902 table, 5 ng/mL): 1.25% | Stability RE (%), Three freeze-thaw ([2]; AST-5902 table, 5 ng/mL): 5.50% | Stability RE (%), −80°C ([2]; AST-5902 table, 5 ng/mL): 3.06% | Stability RE (%), 4°C ([2]; AST-5902 table, 40 ng/mL): 0.00% | Stability RE (%), Room temperature ([2]; AST-5902 table, 40 ng/mL): 0.31% | Stability RE (%), Three freeze-thaw ([2]; AST-5902 table, 40 ng/mL): −0.91% | Stability RE (%), −80°C ([2]; AST-5902 table, 40 ng/mL): −0.53% | Stability in rat plasma [2]: remain stable

C=CC(=O)Nc1cc(Nc2nccc(-c3cn(C)c4ccccc34)n2)c(OCC(F)(F)F)nc1N(C)CCN(C)C [firmonertinib]
AUC(0-inf) [1, 5]: 367 ± 89.7 ng·h/mL | AUC(0-t) [1, 5]: 270 ± 28.4 ng·h/mL | Cmax [1, 5]: 13.5 ± 4.43 ng/mL | Tmax [1, 5]: 6.33 ± 1.97 h | half-life [1, 5]: 39.7 ± 35.7 h | CL/F [1, 5]: 341 mL/min/kg | MRT last [1, 5]: 24.5 ± 2.43 h | MRT inf [1, 5]: 61.8 ± 44.7 h | Vd/F [1, 5]: 1010 L/kg | AUC(0-inf) [1, 6]: 486 ± 103 ng·h/mL | AUC(0-t) [1, 6]: 456 ± 125 ng·h/mL | Cmax [1, 6]: 27 ± 9.75 ng/mL | Tmax [1, 6]: 6 ± 2.19 h | half-life [1, 6]: 16.2 ± 6.77 h | CL/F [1, 6]: 256 mL/min/kg | MRT last [1, 6]: 19.2 ± 2.34 h | MRT inf [1, 6]: 28.4 ± 6.88 h | Vd/F [1, 6]: 374 ± 209 L/kg | AUC(0-inf) [1, 7]: 458 ± 46 ng·h/mL | AUC(0-t) [1, 7]: 421 ± 21.4 ng·h/mL | Cmax [1, 7]: 27.9 ± 4.22 ng/mL | Tmax [1, 7]: 5 ± 1.1 h | half-life [1, 7]: 17.9 ± 5.91 h | CL/F [1, 7]: 264 mL/min/kg | MRT last [1, 7]: 19.6 ± 2.48 h | MRT inf [1, 7]: 30.3 ± 5.96 h | Vd/F [1, 7]: 400 ± 95.8 L/kg | Difference in main pharmacokinetic data between single-dose and long-term nirmatrelvir and ritonavir groups ([1]; rats): no significant differences | AUC(0-t) of firmonertinib increased by [1, 10]: 1.55 times | CLz/F of firmonertinib decreased by [1, 10]: 23% | Cmax of firmonertinib increased by [1, 10]: 2.05 times | MRT(0-t) of firmonertinib decreased by [1, 10]: 20% | MRT(0-∞) of firmonertinib decreased by [1, 10]: 51% | Vz/F of firmonertinib decreased by [1, 10]: 61% | t1/2 of firmonertinib decreased by [1, 10]: 55% | AUC(0-t) of firmonertinib increased by [1, 9]: 1.68 times | CLz/F of firmonertinib decreased by [1, 9]: 26% | Cmax of firmonertinib increased by [1, 9]: 1.99 times | MRT(0-t) of firmonertinib decreased by [1, 9]: 22% | MRT(0-∞) of firmonertinib decreased by [1, 9]: 55% | Vz/F of firmonertinib decreased by [1, 9]: 64% | t1/2 of firmonertinib decreased by [1, 9]: 60% | Stability RE (%), 4°C ([2]; 0.3 ng/mL): −4.98% | Stability RE (%), Room temperature ([2]; 0.3 ng/mL): 7.47% | Stability RE (%), 4°C ([2]; 40 ng/mL): 2.22% | Stability RE (%), Room temperature ([2]; 40 ng/mL): −0.57% | Stability RE (%), 4°C ([2]; 400 ng/mL): −2.90% | Stability RE (%), Room temperature ([2]; 400 ng/mL): 2.63% | Stability in rat plasma [2]: remain stable | Exposure of firmonertinib on co-administration with itraconazole [3]: significantly increases | Exposure of firmonertinib on co-administration with rifampicin [4]: significantly reduced | Main metabolizing enzyme (CYP3A4; in vitro experiments, to N-demethylated metabolite AST-5902): metabolized mainly by CYP3A4 | Relation to CYP3A4 (CYP3A4; previous studies): both a substrate and an inducer of CYP3A4
